Assay results: patent US20240343699A1, “DERIVATIVES OF SUBSTITUTED MORPHOLINES AND USES THEREOF” (Supernus Pharmaceuticals, Inc., priority 2023, published 2024)
Where “and” joins values, the source holds several entries; their conditions need not be identical. Equal values may be shown once.

Tests used:
[1] = Metabolic stability in dog liver S9; assay type: in vitro ADME, Beagle dog; conditions: dog liver S9, 1 μM; for half-life at 1 μM / microsomal CLint at 1 μM: Beagle, pH 7.2; for microsomal CLint at 1 μM: read-out: CLint(LS9)
Description: (§1) Incubation Buffer (PBK): 50 mM potassium phosphate buffer was prepared from 1 M potassium phosphate buffer, pH 7.2. […] The dilution of […] was prepared by 90% methanol/10% DMSO, then 10 μM working solutions were prepared by diluting the 0.1 mM intermediates with 50 mM PBK. […] Prior to use, the stock solutions were brought to room temperature and thoroughly mixed. […] Cofactors Solutions: the mixture of cofactors solution was made at 10 mM of NADPH and 10 mM of UDPGA in PBK buffer.
(§2) The incubation was carried out in 96-well plates. The liver S9 working solutions were added to 96-well plates (80 μL/well) in duplicate. […] Reaction was initiated by adding cofactor mixture 10 μL/well. The plates were incubated at 37° C. in a water bath with shaking. […] The final organic solvent content in the incubation was ≤1%.
(§3) At specified time points, i.e., 5, 10, 20, 30 and 60 minutes, NCF60 (without adding NADPH (Nicotinamide-adenine dinucleotide phosphate, reduced form) and UDPGA (Uridine 5′-diphosphoglucuronic acid trisodium salt) replaced with PBK buffer reaction was stopped by adding three volumes of stop solution. The time zero (To) samples were prepared by adding three volumes of stop solution to liver S9 samples, followed by addition of test article or control, and cofactor mixture solution 10 μL/well.
(§4) Subsequently, 100 μL of supernatant.
(§5) Positive controls: 7-ethoxycoumarin and 7-hydroxycoumarin.

[2] = Tissue binding in CD-1 mouse brain homogenate (equilibrium dialysis); conditions: for stability in mouse brain homogenate: dialysis conditions
[3] = Protein binding in CD-1 mouse plasma (equilibrium dialysis); conditions: dialysis conditions; no binding reported
[4] = Metabolic stability in human intestinal homogenate; assay type: in vitro ADME; conditions: human intestinal homogenate, 1 μM
Description: Incubation Buffer (PBK): 50 mM potassium phosphate buffer (PBK) was prepared from 1 M potassium phosphate buffer, pH 7.2. […] The dilution of 1 mM intermediate was prepared from 10 mM stock with 90% methanol/water, then […] working solutions were prepared by diluting the 1 mM intermediates with 50 mM PBK. […] Prior to use, the stock solutions were brought to room temperature and thoroughly mixed. […] Cofactors Solutions: the cofactor solution was made at 10 mM of NADPH (nicotinamide-adenine dinucleotide phosphate, reduced form) in 50 mM PBK buffer.
as §2, with “intestinal homogenate mixture solution was” for “liver S9 working solutions were”, “solution at” for “mixture”, “µL/well.” for “μL/well.”
At specified time points, i.e., 5, 10, 20, 30 and 60 minutes, NCF60 (no cofactor at 60 min, without adding NADPH replaced with 50 mM PBK buffer) reaction was stopped by adding three volumes of stop solution. The time zero (To) samples were prepared by adding three volumes of stop solution to intestinal homogenate samples, followed by addition of test article or control, and cofactor solution 10 μL/well.
Subsequently, 100 μL of supernatant was removed from each well, diluted with 100 μL pure water and analyzed by LC/MS/MS.
A study was conducted to examine the metabolic stability. […] Positive controls: 7-hydroxycoumarin and Testosterone.

[5] = 80 mg/kg PO; for Clinical observation (tolerability): beagle dogs; for plasma concentration of the analog itself: LLOQ 3.0 ng/mL
[6] = In vitro stability in human plasma; assay type: in vitro ADME; conditions: human plasma, 2.0 μM
Description: Test Article Solutions: COMPOUND A, COMPOUND B and COMPOUND C stock solutions at 10 mM were prepared in dimethyl sulfoxide (DMSO). Further dilution with DMSO was made to prepare 2.0 mM. The working solutions of 50 μM was prepared with 20% MeOH/water. […] Prior to use, the stock solutions were brought to room temperature and thoroughly mixed and prepared same as described above.
Incubations were conducted in 96-well plate format. The time points defined for this study are 0, 5, 15, 30 and 60 minutes.
An appropriate volume of plasma from test species were added to a 96-deep well plate, and COMPOUND A, COMPOUND B and COMPOUND C working solution was spiked into the plasma in duplicate to achieve a final concentration of 2.0 μM. For positive controls, the rat plasma was spiked with enalapril, the dog plasma spiked with bisacodyl and the human plasma was spiked with propantheline. All spiked plasma sample plates were incubated in a water bath at 37° C. with shaking.
At the end of each time point, samples were immediately quenched with three volume of cold quenching solution.
A study was conducted to examine the plasma stability. Test Compounds: COMPOUND D, COMPOUND E, and Viloxazine. Positive controls: Enalapril and Propantheline.

[7] = Metabolic stability in human liver S9; assay type: in vitro ADME; conditions: human liver S9, 1 μM; for half-life at 1 μM / microsomal CLint at 1 μM: pH 7.2; for microsomal CLint at 1 μM: read-out: CLint(LS9)
Description: as §1, §2, §3, §4, §5

[8] = mouse brain homogenate, 2 μM, 4 hr dialysis (COMPOUND A 1 hr)

## CCOc1ccccc1OC[C@@H]1CN(C(=O)OC(OC(=O)[C@@H](N)C(C)C)C(C)C)CCO1 (some centres unmarked) [COMPOUND B]
[1]
  half-life at 1 μM: 7.3 min
  microsomal CLint at 1 μM: 190 µL/min/mg
[1]; 0 min
  % Remaining: 100%
  Analyte Peak area/IS Peak area Mean × 100 (n = 2): 7.78
[1]; 5 min
  % Remaining: 2.9%
  Analyte Peak area/IS Peak area Mean × 100 (n = 2): 0.226
[1]; 10 min
  % Remaining: 4.0%
  Analyte Peak area/IS Peak area Mean × 100 (n = 2): 0.309
[1]; 20 min
  % Remaining: 2.1%
  Analyte Peak area/IS Peak area Mean × 100 (n = 2): 0.166
[1]; 30 min
  % Remaining: 0.5%
  Analyte Peak area/IS Peak area Mean × 100 (n = 2): 0.035
[1]; 60 min
  % Remaining: 0.09% and 0.1%
  Analyte Peak area/IS Peak area Mean × 100 (n = 2): 0.007
[1]; NCF60 (no cofactors, 60 min)
  % Remaining: 0.0%
  Analyte Peak area/IS Peak area Mean × 100 (n = 2): 0.000
[2]; 2 μM
  stability in mouse brain homogenate: unstable
[2]; mouse brain homogenate, 2 μM, 4 hr
  % Unbound Experimental: 15.5%
[2]; [8]
  Analyte Peak area/IS Peak area CD (brain homogenate side): 0.009 and 0.010
  Analyte Peak area/IS Peak area CR (buffer side): 0.001 and 0.002
[2]; mouse brain homogenate, 2 μM
  Analyte Peak area/IS Peak area Co (time zero): 0.057 and 0.059 and 0.064
[3]
  stability in the mouse plasma: instability
[4]; 0 min
  % Remaining: 100%
  Analyte Peak area/IS Peak area Mean (n = 2): 0.275
[4]; 5 min
  % Remaining: 7.3%
  Analyte Peak area/IS Peak area Mean (n = 2): 0.020
[4]; 10 min
  % Remaining: 7.1%
  Analyte Peak area/IS Peak area Mean (n = 2): 0.020
[4]; 20 min
  % Remaining: 6.1%
  Analyte Peak area/IS Peak area Mean (n = 2): 0.017
[4]; 30 min
  % Remaining: 2.7%
  Analyte Peak area/IS Peak area Mean (n = 2): 0.007
[4]; 60 min
  % Remaining: 0.57%
  Analyte Peak area/IS Peak area Mean (n = 2): 0.002
[4]; NCF60 (no cofactor at 60 min)
  % Remaining: 0.8%
  Analyte Peak area/IS Peak area Mean (n = 2): 0.002
[4]; pH 7.2
  half-life at 1 μM: 10.3 min
[4]; pH 7.2, read-out: CLint(HIH)
  microsomal CLint at 1 μM: 135 µL/min/mg
[5]
  Clinical observation (tolerability): well tolerated
  plasma concentration of the analog itself: mostly below the LLOQ
[6]
  half-life at 2 μM: > 187 min
[6]; 0 min
  % Remaining: 100%
  Analyte Peak area/IS Peak area Mean (N = 2): 1.90
[6]; 5 min
  % Remaining: 90.6%
  Analyte Peak area/IS Peak area Mean (N = 2): 1.72
[6]; 15 min
  % Remaining: 94.5%
  Analyte Peak area/IS Peak area Mean (N = 2): 1.79
[6]; 30 min
  % Remaining: 87.1%
  Analyte Peak area/IS Peak area Mean (N = 2): 1.65
[6]; 60 min
  % Remaining: 91.5%
  Analyte Peak area/IS Peak area Mean (N = 2): 1.73
[7]; 0 min
  % Remaining: 100%
  Analyte Peak area/IS Peak area Mean × 100 (n = 2): 8.22
[7]; 5 min
  % Remaining: 14%
  Analyte Peak area/IS Peak area Mean × 100 (n = 2): 1.12
[7]; 10 min
  % Remaining: 12%
  Analyte Peak area/IS Peak area Mean × 100 (n = 2): 0.973
[7]; 20 min
  % Remaining: 4.2%
  Analyte Peak area/IS Peak area Mean × 100 (n = 2): 0.342
[7]; 30 min
  % Remaining: 1.6%
  Analyte Peak area/IS Peak area Mean × 100 (n = 2): 0.131
[7]; 60 min
  % Remaining: 0.24% and 0.2%
  Analyte Peak area/IS Peak area Mean × 100 (n = 2): 0.020
[7]; NCF60 (no cofactors, 60 min)
  % Remaining: 1.2%
  Analyte Peak area/IS Peak area Mean × 100 (n = 2): 0.099
[7]
  half-life at 1 μM: 7.74 min
  microsomal CLint at 1 μM: 179 µL/min/mg

## CCOc1ccccc1OC[C@@H]1CN(C(=O)OC(C)OC(=O)[C@@H](N)C(C)C)CCO1 (some centres unmarked) [COMPOUND A]
[1]
  half-life at 1 μM: 11 min
  microsomal CLint at 1 μM: 126 µL/min/mg
[1]; 0 min
  % Remaining: 100%
  Analyte Peak area/IS Peak area Mean × 100 (n = 2): 12.2
[1]; 5 min
  % Remaining: 8.0%
  Analyte Peak area/IS Peak area Mean × 100 (n = 2): 0.98
[1]; 10 min
  % Remaining: 8.8%
  Analyte Peak area/IS Peak area Mean × 100 (n = 2): 1.078
[1]; 20 min
  % Remaining: 5.2%
  Analyte Peak area/IS Peak area Mean × 100 (n = 2): 0.635
[1]; 30 min
  % Remaining: 3.1%
  Analyte Peak area/IS Peak area Mean × 100 (n = 2): 0.381
[1]; 60 min
  % Remaining: 0.8%
  Analyte Peak area/IS Peak area Mean × 100 (n = 2): 0.097
[1]; NCF60 (no cofactors, 60 min)
  % Remaining: 2.0%
  Analyte Peak area/IS Peak area Mean × 100 (n = 2): 0.248
[2]; 2 μM
  stability in mouse brain homogenate: unstable
[2]; [8]
  Analyte Peak area/IS Peak area CR (buffer side): 0.0003 and 0.0002
[2]; mouse brain homogenate, 2 μM
  Analyte Peak area/IS Peak area Co (time zero): 0.010 and 0.012
[2]; mouse brain homogenate, 1 hr (data not shown)
  % remaining after 1 hr: ^dCan't be determined due to instability of test article, which has 1.3% remaining after 1 hr (data not shown).
[3]
  stability in the mouse plasma: instability
[4]; 0 min
  % Remaining: 100%
  Analyte Peak area/IS Peak area Mean (n = 2): 0.269
[4]; 5 min
  % Remaining: 0%
  Analyte Peak area/IS Peak area Mean (n = 2): 0.000
[4]; 10 min
  % Remaining: 0%
  Analyte Peak area/IS Peak area Mean (n = 2): 0.000
[4]; 20 min
  % Remaining: 0%
  Analyte Peak area/IS Peak area Mean (n = 2): 0.000
[4]; 30 min
  % Remaining: 0%
  Analyte Peak area/IS Peak area Mean (n = 2): 0.000
[4]; 60 min
  % Remaining: 0%
  Analyte Peak area/IS Peak area Mean (n = 2): 0.000
[4]; NCF60 (no cofactor at 60 min)
  % Remaining: 0%
  Analyte Peak area/IS Peak area Mean (n = 2): 0.000
[4]; pH 7.2
  half-life at 1 μM: < 2.5 min
[5]
  Clinical observation (tolerability): well tolerated
  plasma concentration of the analog itself: mostly below the LLOQ
[6]
  half-life at 2 μM: 94.9 min
[6]; 0 min
  % Remaining: 100%
  Analyte Peak area/IS Peak area Mean (N = 2): 2.31
[6]; 5 min
  % Remaining: 107%
  Analyte Peak area/IS Peak area Mean (N = 2): 2.46
[6]; 15 min
  % Remaining: 93.1%
  Analyte Peak area/IS Peak area Mean (N = 2): 2.15
[6]; 30 min
  % Remaining: 80.8%
  Analyte Peak area/IS Peak area Mean (N = 2): 1.86
[6]; 60 min
  Analyte Peak area/IS Peak area Mean (N = 2): 1.57
[7]; 0 min
  % Remaining: 100%
  Analyte Peak area/IS Peak area Mean × 100 (n = 2): 11.7
[7]; 5 min
  % Remaining: 1.4%
  Analyte Peak area/IS Peak area Mean × 100 (n = 2): 0.164
[7]; 10 min
  % Remaining: 1.2%
  Analyte Peak area/IS Peak area Mean × 100 (n = 2): 0.143
[7]; 20 min
  % Remaining: 0.3%
  Analyte Peak area/IS Peak area Mean × 100 (n = 2): 0.039
[7]; 30 min
  % Remaining: 0.2%
  Analyte Peak area/IS Peak area Mean × 100 (n = 2): 0.021
[7]; 60 min
  % Remaining: 0.01% and 0.0%
  Analyte Peak area/IS Peak area Mean × 100 (n = 2): 0.001
[7]; NCF60 (no cofactors, 60 min)
  % Remaining: 0.1%
  Analyte Peak area/IS Peak area Mean × 100 (n = 2): 0.008
[7]
  half-life at 1 μM: 5.76 min
  microsomal CLint at 1 μM: 241 µL/min/mg
